The values below come from patent publication US9593155B2, “Oxyntomodulin analogs” (priority 2009, dated 2017).

Data set [1] addresses T1, hGLP-1R (Homo sapiens, UniProt P43220). Nature of the data set: cell-based cAMP assay as described in WO2008101017 (Table 11), hGLP-1R. An excerpt: (§1) This example presents tables showing the in vitro potencies of various peptide analogs at the human GLP-1 receptor (hGLP-1R) and the human glucagon receptor (hGCGR).
Data set [2] deals with T2, hGCGR (Homo sapiens, UniProt P47871). Nature of the data set: cell-based cAMP assay as described in WO2008101017 (Table 11), hGCGR.
From the text: as §1

Data set [3] has as its target T1, hGLP-1R. Nature of the data set: fluorescence cell based cAMP assay, CHO cells stably expressing GLP-1R. Also on record: expressed in transfected cells. Conditions: hGLP-1R EC50, Table 10. The procedure: (§2) We initially screened peptides in fluorescence cell based assays that measure production of cyclic-AMP (cAMP), using CHO cell lines stably expressing either recombinant human GLP-1R or human GCGR. Determination of Mouse and human GLP-1R and GCGR Agonist Activity was essentially as follows. CHO cells stably expressing mouse or human GLP-1R or GCGR were grown in Iscove's Modified Dulbecco's Medium (IMDM), 10% FBS, 1 mM L-glutamine, penicillin-streptomycin (100 μ/mL) and 750 μg G418/mL for three-four days before harvesting using Enzymefree Dissociation Media (EFDM, Specialty Media). […] The plates were held an additional hour at room temperature, then increasing cAMP levels were detected by a decrease in TR-FRET signal as measured in an EnVision counter (PerkinElmer) in comparison to a standard curve of cAMP as per the manufacturer's instructions. Data were analyzed using the linear and nonlinear regression analysis software, GraphPad Prism.
(§3) The in vitro potencies shown in Table 10 or Table 11 were determined from the results of assays that were similar to either the cell-based cAMP assays described herein above (Table 10) or the cell-based cAMP assays described in International Published Application No. WO2008101017, which is incorporated herein in its entirety, in particular the cell-based cAMP assays described therein (Table 11).

The nature of data set [4]: pI of the peptide analogs.
A short description of data set [5]: 14 day chronic infusion food intake and body weight study in DIO mice. The class given is in vivo, mouse. Conditions: for Cumulative food intake change / Cumulative weight change: 14 day chronic infusion.
From the text: Lean or diet-induced obese 10-12-week-old male C57BL/6 mice were purchased from Taconic Farms (Germantown, N.Y.) and housed in individual Tecniplast cages in a conventional SPF facility.
Data set [6] can be described thus: intraperitoneal glucose tolerance test (IPGTT) in lean C57BL/6N mice. Type of data set: in vivo, mouse.
Experimental: Intraperitoneal glucose tolerance test. Male C57BL/6N mice were distributed by weight into treatment groups (n=6/group). […] 10 min prior the glucose challenge. Blood glucose concentrations were determined at T=−10 min and T=0 min (baseline). Mice were then immediately challenged, intraperitoneally, with D-glucose (2 g/kg). One group of vehicle-treated mice was challenged with 0.9% saline as a
negative control. Blood glucose levels were determined from tail bleeds taken at 20, 40 and 60 min after D-glucose challenge. […] Percent inhibition values for each treatment were generated from the AUC data normalized to the saline-challenged controls. Areas under the curve (AUC) for glucose (AUC glucose) was calculated using the trapezoidal method. […] Statistical analysis was done using unpaired 2-tailed Student's t test. P values<0.05 were reported as significant.
The target in data set [7] is T2, hGCGR. Nature of the data set: ex vivo perfused liver glycogenolysis assay (13C NMR), humanized GCGR mice. Particulars: at 300 nM.
Experimental: Humanized GCGR mice (C57B/6N) were anesthetized (Nembutal IP, 50 mg/kg) in the middle of the dark cycle. The portal vein was then cannulated and the liver was excised and perfused with a preoxygenated Krebs-Henseleit bicarbonate buffered solution for 5-10 minutes which initially was not recirculated to wash out any endogenous substrates. […] A ^13C NMR-visible pool of glycogen was then created by the addition of the gluconeogenic substrate [2-^13C] Pyruvate and ammonium chloride (˜7 mM and 1 mM, respectively) to the perfusate, and the amount of ^13C glycogen contained in the liver was monitored in real time via the Cl resonance of the glucosyl units in glycogen.
Mice expressing human GCGR were anesthetized (Nembutal IP, 50 mg/kg) at approximately the middle of the dark cycle. The portal vein was then cannulated and tied off and the liver was excised. The liver was then placed into a 20 mm NMR tube and the initial Krebs solution was exchanged for a Krebs-BSA perfusate, which was recirculated. ^31P NMR spectroscopy was performed initially to examine the ATP and inorganic phosphate (Pi) levels in the liver which can be used to assess hepatic viability. […] Pyruvate+NH4Cl and the amount of glycogen contained in the liver was monitored in real time via the Cl resonance of the glucosyl units in glycogen.
Data set [8] in a line: hyperglycemic clamp in DIO mice. The class given is in vivo, mouse. Conditions: ~16 μg/kg/min i.v., last 60 minutes.
Experimental: DIO mice (16 wk on high fat diet) were anesthetized with xylazine and ketamine and catheterized through the right internal jugular vein 3 days before the in vivo studies. […] The venous catheter was used for infusion, and blood samples were collected from the tail vein. Each animal was monitored for food intake and weight gain after surgery to ensure complete recovery. […] Briefly, plasma glucose was measured by OneTouch glucometer every 10 minutes during the 2 hour period. Twenty-five percent glucose (D-glucose, Sigma) was infused i.v. and the rate was adjusted periodically to clamp the plasma glucose levels (˜20 mM). […] Glucose infusion rate (GIR) was adjusted to body weight.
Another data set addresses T3, GCGR (Mus musculus, UniProt Q61606).
T3 construct: from tissue; host or cells: liver of wild-type mice, dosed in vivo
Nature of the data set: in vivo GCGR receptor occupancy competition assay with 125I-glucagon in wild-type mice.

The target in data set [9] is T2, hGCGR. Briefly: fluorescence cell based cAMP assay, CHO cells stably expressing GCGR. Particulars: GCGR EC50, Table 4. On the procedure:
as §2, with “The assay was terminated with the addition of the LANCE kit Detection buffer as per the manufacturer's instructions. The” for “The”
as §3
On the technique in general: Cyclic AMP is a second messenger, typically raised through Gs and lowered through Gi signalling.

Read-outs that look alike come from different tables or passages of the source. *1 amine or outer side, *2 acyl side, *3 side chain or, on linkers, in order; H or OH if unused. Where a SMILES comes first, the peptide text is derived from it. Bridges are numbered along the chain shown (N, C = ends). Where no end group is shown, it is not given here. Side-chain parts run from the residue outwards. [ ]: non-standard residue; d: D form. The star is where a group is joined. X2 = CC(C)CCC[C@@H](C)[C@H]1CC[C@H]2[C@@H]3CC=C4C[C@@H](OC(=O)CCOCCOCCOCCOCCOCCOCCOCCOCCOCCOCCOCCOCCNC(=O)C*)CC[C@]4(C)[C@H]3CC[C@]12C; γGlu = O=C(O)[C@H](CCC(=O)[*:2])N[*:1]; Palmitoyl = CCCCCCCCCCCCCCCC(=O)*; Aib = CC(C)(N)C(=O)O

T2 sequence (P47871 26-477): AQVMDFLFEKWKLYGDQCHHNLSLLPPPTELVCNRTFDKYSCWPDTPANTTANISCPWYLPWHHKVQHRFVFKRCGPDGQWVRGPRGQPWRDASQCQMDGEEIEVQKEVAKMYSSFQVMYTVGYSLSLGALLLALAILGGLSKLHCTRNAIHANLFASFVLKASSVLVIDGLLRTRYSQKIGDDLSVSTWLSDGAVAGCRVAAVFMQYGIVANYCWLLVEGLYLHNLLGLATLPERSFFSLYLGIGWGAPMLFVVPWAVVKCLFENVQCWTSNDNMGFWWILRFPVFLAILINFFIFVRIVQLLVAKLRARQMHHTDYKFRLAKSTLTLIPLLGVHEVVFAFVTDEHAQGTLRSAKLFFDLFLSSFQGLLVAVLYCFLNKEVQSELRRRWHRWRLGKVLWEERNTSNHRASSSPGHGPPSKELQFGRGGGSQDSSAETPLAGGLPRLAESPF
T1 sequence (P43220 24-463): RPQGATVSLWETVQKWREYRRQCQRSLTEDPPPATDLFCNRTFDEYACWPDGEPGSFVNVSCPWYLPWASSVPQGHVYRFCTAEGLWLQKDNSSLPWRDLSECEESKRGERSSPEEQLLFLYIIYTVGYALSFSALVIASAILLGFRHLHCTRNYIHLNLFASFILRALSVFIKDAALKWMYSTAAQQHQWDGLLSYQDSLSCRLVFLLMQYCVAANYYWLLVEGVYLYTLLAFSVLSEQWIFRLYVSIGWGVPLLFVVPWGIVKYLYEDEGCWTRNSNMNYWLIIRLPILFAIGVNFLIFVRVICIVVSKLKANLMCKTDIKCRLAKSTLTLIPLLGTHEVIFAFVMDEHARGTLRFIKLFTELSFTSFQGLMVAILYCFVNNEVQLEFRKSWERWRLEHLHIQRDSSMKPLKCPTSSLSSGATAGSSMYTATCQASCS
T3 sequence (Q61606 27-485): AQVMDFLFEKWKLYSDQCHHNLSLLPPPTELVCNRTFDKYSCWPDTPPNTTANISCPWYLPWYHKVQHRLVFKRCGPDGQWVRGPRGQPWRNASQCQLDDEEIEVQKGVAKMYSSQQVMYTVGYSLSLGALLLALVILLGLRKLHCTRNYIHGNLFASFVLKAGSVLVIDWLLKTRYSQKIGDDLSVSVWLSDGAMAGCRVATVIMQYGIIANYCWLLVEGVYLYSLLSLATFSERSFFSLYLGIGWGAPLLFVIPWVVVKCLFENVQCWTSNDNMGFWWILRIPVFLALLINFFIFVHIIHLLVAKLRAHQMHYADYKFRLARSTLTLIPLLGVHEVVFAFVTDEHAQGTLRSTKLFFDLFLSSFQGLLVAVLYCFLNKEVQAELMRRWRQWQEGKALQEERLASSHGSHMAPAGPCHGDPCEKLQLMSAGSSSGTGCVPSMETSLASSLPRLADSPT

Turning to `CCCCCCCCCCCCCCCC(=O)N[C@@H](CCC(=O)N[C@@H](CCC(=O)NCCCC[C@H](NC(=O)[C@H](CC(=O)O)NC(=O)[C@H](CO)NC(=O)[C@@H](NC(=O)[C@H](Cc1ccccc1)NC(=O)[C@@H](NC(=O)CNC(=O)[C@H](CCC(N)=O)NC(=O)[C@@H](CO)NC(=O)[C@@H](N)Cc1c[nH]cn1)[C@@H](C)O)[C@@H](C)O)C(=O)N[C@@H](CO)C(=O)N[C@@H](CCCCN)C(=O)N[C@@H](Cc1ccc(O)cc1)C(=O)N[C@@H](CC(C)C)C(=O)N[C@@H](CC(=O)O)C(=O)NC(C)(C)C(=O)N[C@@H](CCCNC(=N)N)C(=O)N[C@@H](CCCNC(=N)N)C(=O)N[C@@H](C)C(=O)N[C@@H](CCC(N)=O)C(=O)N[C@@H](CC(=O)O)C(=O)N[C@@H](Cc1ccccc1)C(=O)N[C@H](C(=O)N[C@@H](CCC(N)=O)C(=O)N[C@@H](Cc1c[nH]c2ccccc12)C(=O)N[C@@H](CC(C)C)C(=O)N[C@@H](CCSC)C(=O)N[C@@H](CC(N)=O)C(=O)N[C@H](C(=O)N[C@H](CCCCN)C(=O)N[C@@H](CCC(N)=O)C(=O)O)[C@@H](C)O)C(C)C)C(=O)O)C(=O)O` [MM103], the values for the EC50 on hGLP-1R [1] and at hGCGR [2] were 0.026 nM and 0.005 nM, respectively.

In the case of `CCCCCCCCCCCCCCCC(=O)N[C@@H](CCC(=O)N[C@@H](CCC(=O)NCCCC[C@H](NC(=O)[C@H](CC(=O)O)NC(=O)[C@H](CO)NC(=O)[C@@H](NC(=O)[C@H](Cc1ccccc1)NC(=O)[C@@H](NC(=O)CNC(=O)[C@H](CCC(N)=O)NC(=O)[C@@H](CO)NC(=O)[C@@H](N)Cc1c[nH]cn1)[C@@H](C)O)[C@@H](C)O)C(=O)N[C@@H](CO)C(=O)N[C@@H](CCCCN)C(=O)N[C@@H](Cc1ccc(O)cc1)C(=O)N[C@@H](CC(C)C)C(=O)N[C@@H](CC(=O)O)C(=O)N[C@@H](CCC(=O)O)C(=O)N[C@@H](CCCNC(=N)N)C(=O)N[C@@H](CCCNC(=N)N)C(=O)N[C@@H](C)C(=O)N[C@@H](CCC(N)=O)C(=O)N[C@@H](CC(=O)O)C(=O)N[C@@H](Cc1ccccc1)C(=O)N[C@H](C(=O)N[C@@H](CCC(N)=O)C(=O)N[C@@H](Cc1c[nH]c2ccccc12)C(=O)N[C@@H](CC(C)C)C(=O)N[C@@H](CCSC)C(=O)N[C@@H](CC(N)=O)C(=O)N[C@H](C(=O)N[C@@H](CCCCN)C(=O)N[C@@H](CCC(N)=O)C(=O)O)[C@@H](C)O)C(C)C)C(=O)O)C(=O)O` [MM111] (H-H[dS]QGTFTSDK([γGlu-γGlu-Palmitoyl])SKYLDERRAQDFVQWLMNTKQ-OH), the EC50 stood at 0.007 nM on hGLP-1R [1] and 0.005 nM on hGCGR [2].

Take `CSCC[C@H](NC(=O)[C@H](CC(C)C)NC(=O)[C@H](Cc1c[nH]c2ccccc12)NC(=O)[C@H](CCC(N)=O)NC(=O)[C@@H](NC(=O)[C@H](Cc1ccccc1)NC(=O)[C@H](CC(=O)O)NC(=O)[C@@H]1CCCCNC(=O)CC[C@H](NC(=O)[C@H](CC(=O)O)NC(=O)[C@H](CC(C)C)NC(=O)[C@H](Cc2ccc(O)cc2)NC(=O)[C@H](CCCCN)NC(=O)[C@H](CO)NC(=O)[C@H](Cc2ccc(O)cc2)NC(=O)[C@H](CC(=O)O)NC(=O)[C@H](CO)NC(=O)[C@@H](NC(=O)[C@H](Cc2ccccc2)NC(=O)[C@@H](NC(=O)CNC(=O)[C@H](CCC(N)=O)NC(=O)C(C)(C)NC(=O)[C@@H](N)Cc2c[nH]cn2)[C@@H](C)O)[C@@H](C)O)C(=O)N[C@@H](CCCNC(=N)N)C(=O)N[C@@H](CCCNC(=N)N)C(=O)N[C@@H](C)C(=O)N1)C(C)C)C(=O)N[C@@H](CC(N)=O)C(=O)N[C@H](C(=O)N[C@@H](CCCCN)C(=O)N[C@@H](CCC(=O)N[C@@H](CCC(=O)N[C@@H](CSCC(=O)NCCOCCOCCOCCOCCOCCOCCOCCOCCOCCOCCOCCOCCC(=O)O[C@H]1CC[C@@]2(C)C(=CC[C@H]3[C@@H]4CC[C@H]([C@H](C)CCCC(C)C)[C@@]4(C)CC[C@@H]32)C1)C(=O)O)C(=O)O)C(=O)O)[C@@H](C)O` [OXM395] (H-H[Aib]QGTFTSDYSKYLDERRAKDFVQWLMNTK[γGlu][γGlu]C(X2)-OH; lactam 16-20; N-terminus assumed): the EC50 at hGLP-1R [3] was 0.7 nM. For the same molecule, the pI entry in data set [4] is listed as “about 5.4”; in [4] (Table 10), 5.4.

As for “HSEGTFTSDYSKYLDSRRAQDFVQWLMNTKRNRNNIA [OXM-Q3E]”, in [5] (5 mg/kg), the ΔBW is on record as −2.4%, the “Cumulative food intake change” value turned out to be 207 kcal and the Cumulative weight change was -0.21 g. In data set [5] (0.5 mg/kg), the “Cumulative food intake change” value was found to be 215 kcal and the Cumulative weight change was -0.21 g. Besides, the “effectiveness at reducing glucose relative to native peptide” value in data set [6] (comparison of the minimal effective dose, IPGTT) is recorded as “about 10 fold”. Moreover, the “blood glucose excursion in IPGTT” value in data set [6] (lean C57BL/6N mice, s.c.) is “significantly reduced blood glucose excursion in a dose-dependent manner”. Besides, the glycogenolysis induced entry at hGCGR [7] is given as “about 58%”. For the same molecule, in data set [8], the “GIR0-60 (glucose infusion rate)” value turned out to be 55 ± 4 mg/kg/min. Moreover, the GCGR occupancy on GCGR (subcutaneous, dose not given) was determined as 0%. In addition, the EC50 at hGCGR [9] stood at 1630 nM.

Molecule glucagon [reference compound] returned a GCGR occupancy with GCGR (1.5 mpk) of 84%.

By EC50 is commonly meant the concentration at which the effect is half-maximal. Higher therefore signals a need for much substance.
